Test results published in PubChem BioAssay AID1745844 (Carcinogenic Potency Database (CPDB), 2022).
Values joined by “and” are separate entries in the source; they are usually repeats but may differ in a detail not shown here. Identical values can stand only once. Active and inactive are the calls of the source. How the calls were made is not given here.

System: rodent lifetime carcinogenesis bioassay, tumor incidence TD50
Test: carcinogenic potency in animals, long-term in vivo studies, CPDB compilation (AID 1745844)
[1] = rat, strain Fischer 344, females, in feed, site: any site (literature study), lesion: several types, types named in the paper, dosed 103 weeks, study length 104 weeks
[2] = rat, strain Fischer 344, males, in feed, site: any site (literature study), lesion: several types, types named in the paper, dosed 103 weeks, study length 104 weeks

C1N2CN3CN1CN(C2)C3
carcinogen call (mouse, strain C3Hf/Dp, females, in drinking water, site: any site (literature study), lesion: several types, types named in the paper, dosed 60 weeks, study length 105 weeks): negative (inactive)
TD50 (mouse, strain C3Hf/Dp, females, in drinking water, site: liver, lesion: angioma, dosed 60 weeks, study length 105 weeks): 51900 mg/kg/day (inactive)
carcinogen call (mouse, strain C3Hf/Dp, females, in drinking water, site: liver, lesion: hepatoma, dosed 60 weeks, study length 105 weeks): negative (inactive)
carcinogen call (mouse, strain C3Hf/Dp, females, in drinking water, site: lung, lesion: adenoma, dosed 60 weeks, study length 105 weeks): negative (inactive)
carcinogen call (mouse, strain C3Hf/Dp, males, in drinking water, site: any site (literature study), lesion: several types, types named in the paper, dosed 60 weeks, study length 105 weeks): negative (inactive)
TD50 (mouse, strain C3Hf/Dp, males, in drinking water, site: liver, lesion: angioma, dosed 60 weeks, study length 105 weeks): 32300 mg/kg/day (inactive)
carcinogen call (mouse, strain C3Hf/Dp, males, in drinking water, site: liver, lesion: hepatoma, dosed 60 weeks, study length 105 weeks): negative (inactive)
TD50 (mouse, strain C3Hf/Dp, males, in drinking water, site: lung, lesion: adenoma, dosed 60 weeks, study length 105 weeks): 293000 mg/kg/day (inactive)
TD50 (mouse, strain CTM, females, in drinking water, site: Harderian gland, lesion: one or several types, types not named, dosed 50 weeks, study length 100 weeks): 26300 mg/kg/day (inactive)
TD50 (mouse, strain CTM, females, in drinking water, site: any site (literature study), lesion: several types, types named in the paper, dosed 50 weeks, study length 100 weeks): 11600 mg/kg/day (inactive)
carcinogen call (mouse, strain CTM, females, in drinking water, site: liver, lesion: angioma, dosed 50 weeks, study length 100 weeks): negative (inactive)
carcinogen call (mouse, strain CTM, females, in drinking water, site: lung, lesion: adenoma, dosed 50 weeks, study length 100 weeks): negative (inactive)
TD50 (mouse, strain CTM, females, in drinking water, site: several sites, sites named in the paper, lesion: one or several types, types not named, dosed 50 weeks, study length 100 weeks): 20900 mg/kg/day (inactive)
carcinogen call (mouse, strain CTM, males, in drinking water, site: any site (literature study), lesion: several types, types named in the paper, dosed 50 weeks, study length 100 weeks): negative (inactive)
carcinogen call (mouse, strain CTM, males, in drinking water, site: liver, lesion: angioma, dosed 50 weeks, study length 100 weeks): negative (inactive)
carcinogen call (mouse, strain CTM, males, in drinking water, site: lung, lesion: adenoma, dosed 50 weeks, study length 100 weeks): negative (inactive)
carcinogen call (mouse, strain SWR, females, in drinking water, site: any site (literature study), lesion: several types, types named in the paper, dosed 60 weeks, study length 103 weeks): negative (inactive)
carcinogen call (mouse, strain SWR, females, in drinking water, site: liver, lesion: one or several types, types not named, dosed 60 weeks, study length 103 weeks): negative (inactive)
carcinogen call (mouse, strain SWR, females, in drinking water, site: lung, lesion: adenoma, dosed 60 weeks, study length 103 weeks): negative (inactive)
carcinogen call (mouse, strain SWR, males, in drinking water, site: any site (literature study), lesion: several types, types named in the paper, dosed 60 weeks, study length 103 weeks): negative (inactive)
carcinogen call (mouse, strain SWR, males, in drinking water, site: liver, lesion: angioma, dosed 60 weeks, study length 103 weeks): negative (inactive)
carcinogen call (mouse, strain SWR, males, in drinking water, site: lung, lesion: adenoma, dosed 60 weeks, study length 103 weeks): negative (inactive)
carcinogen call (rat, strain Wistar, females, in drinking water, site: any site (literature study), lesion: several types, types named in the paper, dosed 104 weeks, study length 146 weeks): negative (inactive)
carcinogen call (rat, strain Wistar, females, in drinking water, site: liver, lesion: one or several types, types not named, dosed 104 weeks, study length 146 weeks): negative (inactive)
carcinogen call (rat, strain Wistar, males, in drinking water, site: any site (literature study), lesion: several types, types named in the paper, dosed 104 weeks, study length 146 weeks): negative (inactive)
carcinogen call (rat, strain Wistar, males, in drinking water, site: liver, lesion: liver-cell carcinoma, dosed 104 weeks, study length 146 weeks): negative (inactive)

c1ccc(Nc2ccc3ccccc3c2)cc1
carcinogen call (hamster, strain Syrian Golden, females, by gavage, site: any site (literature study), lesion: several types, types named in the paper, dosed 84 weeks, study length 84 weeks): negative (inactive)
carcinogen call (hamster, strain Syrian Golden, males, by gavage, site: any site (literature study), lesion: several types, types named in the paper, dosed 84 weeks, study length 84 weeks): negative (inactive)
TD50 (mouse, strain B6AKF1, females, oral dosing, site: any site (literature study), lesion: several types, types named in the paper, dosed 76 weeks, study length 76 weeks): 1080 mg/kg/day
TD50 (mouse, strain B6AKF1, males, oral dosing, site: any site (literature study), lesion: several types, types named in the paper, dosed 76 weeks, study length 76 weeks): 186 mg/kg/day
TD50 (mouse, strain B6AKF1, males, oral dosing, site: liver, lesion: hepatoma, dosed 76 weeks, study length 76 weeks): 460 mg/kg/day
TD50 (mouse, strain B6AKF1, males, oral dosing, site: lung, lesion: adenoma, dosed 76 weeks, study length 76 weeks): 431 mg/kg/day
TD50 (mouse, strain B6C3F1, females, in feed, site: kidney, lesion: tubular-cell adenoma + tubular-cell adenocarcinoma, dosed 103 weeks, study length 104 weeks): 10800 mg/kg/day
TD50 (mouse, strain B6C3F1, females, in feed, site: liver, lesion: hepatocellular adenoma + hepatocellular carcinoma + neoplastic nodule, dosed 103 weeks, study length 104 weeks): 5630 mg/kg/day
TD50 (mouse, strain B6C3F1, females, oral dosing, site: any site (literature study), lesion: several types, types named in the paper, dosed 76 weeks, study length 76 weeks): 1080 mg/kg/day
TD50 (mouse, strain B6C3F1, females, oral dosing, site: liver, lesion: hepatoma, dosed 76 weeks, study length 76 weeks): 1080 mg/kg/day
TD50 (mouse, strain B6C3F1, males, in feed, site: any site (literature study), lesion: several types, types named in the paper, dosed 103 weeks, study length 104 weeks): 4510 mg/kg/day
TD50 (mouse, strain B6C3F1, males, in feed, site: liver, lesion: hepatocellular adenoma + hepatocellular carcinoma + neoplastic nodule, dosed 103 weeks, study length 104 weeks): 1350 mg/kg/day
TD50 (mouse, strain B6C3F1, males, in feed, site: subcutaneous tissue, lesion: fibrosarcoma + neurofibrosarcoma + sarcoma, NOS, dosed 103 weeks, study length 104 weeks): 2380 mg/kg/day (inactive)
TD50 (mouse, strain B6C3F1, males, oral dosing, site: any site (literature study), lesion: several types, types named in the paper, dosed 76 weeks, study length 76 weeks): 108 mg/kg/day
TD50 (mouse, strain B6C3F1, males, oral dosing, site: liver, lesion: hepatoma, dosed 76 weeks, study length 76 weeks): 165 mg/kg/day
carcinogen call [1]: negative (inactive)
carcinogen call [2]: negative (inactive)
carcinogen call (rat, strain Sprague-Dawley, females, by gavage, site: any site (literature study), lesion: several types, types named in the paper, dosed 136 weeks, study length 136 weeks): negative (inactive)
carcinogen call (rat, strain Sprague-Dawley, males, by gavage, site: any site (literature study), lesion: several types, types named in the paper, dosed 160 weeks, study length 160 weeks): negative (inactive)

Clc1nc(Cl)nc(Nc2ccccc2Cl)n1
TD50 (mouse, strain B6C3F1, females, in feed, site: any site (literature study), lesion: several types, types named in the paper, dosed 103 weeks, study length 107 weeks): 99.2 mg/kg/day (inactive)
TD50 (mouse, strain B6C3F1, females, in feed, site: liver, lesion: hepatocellular adenoma + hepatocellular carcinoma + neoplastic nodule, dosed 103 weeks, study length 107 weeks): 2550 mg/kg/day
TD50 (mouse, strain B6C3F1, females, in feed, site: lung, lesion: alveolar/bronchiolar adenoma + alveolar/bronchiolar carcinoma, dosed 103 weeks, study length 107 weeks): 1690 mg/kg/day
carcinogen call (mouse, strain B6C3F1, males, in feed, site: any site (literature study), lesion: several types, types named in the paper, dosed 103 weeks, study length 107 weeks): negative (inactive)
carcinogen call [1]: negative (inactive)
TD50 (rat, strain Fischer 344, females, in feed, site: liver, lesion: hepatocellular adenoma + hepatocellular carcinoma + neoplastic nodule, dosed 103 weeks, study length 104 weeks): 1050 mg/kg/day
TD50 [2]: 246 mg/kg/day (inactive)

O=C(OOC(=O)c1ccccc1)c1ccccc1
carcinogen call (mouse, strain albino, both sexes, in feed, site: liver, lesion: hepatoma, dosed 80 weeks, study length 80 weeks): negative (inactive)
carcinogen call (mouse, strain albino, both sexes, in feed, site: lung, lesion: adenoma, dosed 80 weeks, study length 80 weeks): negative (inactive)
TD50 (rat, strain albino, both sexes, in feed, site: any site (literature study), lesion: benign tumor, dosed 120 weeks, study length 120 weeks): 6480 mg/kg/day (inactive)
TD50 (rat, strain albino, both sexes, in feed, site: any site (literature study), lesion: malignant tumor, dosed 120 weeks, study length 120 weeks): 15600 mg/kg/day (inactive)
carcinogen call (rat, strain albino, both sexes, in feed, site: liver, lesion: malignant hepatoma, dosed 120 weeks, study length 120 weeks): negative (inactive)

CCCN(N=O)C(N)=O
carcinogen call (rat, strain F344/DuCrj, females, in drinking water, site: thymus gland, lesion: lymphoma, dosed 70 weeks, study length 70 weeks): positive
carcinogen call (rat, strain F344/DuCrj, females, in drinking water, site: thymus gland, lesion: lymphoma, dosed 75 weeks, study length 75 weeks): positive
carcinogen call (rat, strain F344/DuCrj, males, in drinking water, site: thymus gland, lesion: lymphoma, dosed 70 weeks, study length 70 weeks): positive
carcinogen call (rat, strain F344/DuCrj, males, in drinking water, site: thymus gland, lesion: lymphoma, dosed 75 weeks, study length 75 weeks): positive

Cc1cc(N)ccc1N
TD50 (mouse, strain B6C3F1, females, in feed, site: any site (literature study), lesion: several types, types named in the paper, dosed 78 weeks, study length 94 weeks): 33200 mg/kg/day
TD50 (mouse, strain B6C3F1, females, in feed, site: liver, lesion: hepatocellular adenoma + hepatocellular carcinoma + neoplastic nodule, dosed 78 weeks, study length 94 weeks): 1960 mg/kg/day
TD50 (mouse, strain B6C3F1, females, in feed, site: lung, lesion: alveolar/bronchiolar adenoma + alveolar/bronchiolar carcinoma, dosed 78 weeks, study length 94 weeks): 364 mg/kg/day (inactive) and 364 mg/kg/day
TD50 (mouse, strain B6C3F1, males, in feed, site: any site (literature study), lesion: several types, types named in the paper, dosed 78 weeks, study length 94 weeks): 272 mg/kg/day (inactive)
TD50 (mouse, strain B6C3F1, males, in feed, site: liver, lesion: hepatocellular adenoma + hepatocellular carcinoma + neoplastic nodule, dosed 78 weeks, study length 94 weeks): 288 mg/kg/day
TD50 (mouse, strain B6C3F1, males, in feed, site: lung, lesion: alveolar/bronchiolar adenoma + alveolar/bronchiolar carcinoma, dosed 78 weeks, study length 94 weeks): 3560 mg/kg/day
carcinogen call (rat, strain Fischer 344, females, in feed, site: any site (literature study), lesion: several types, types named in the paper, dosed 78 weeks, study length 107 weeks): negative (inactive)
carcinogen call (rat, strain Fischer 344, males, in feed, site: any site (literature study), lesion: several types, types named in the paper, dosed 78 weeks, study length 106 weeks): negative (inactive)
TD50 (rat, strain Fischer 344, males, in feed, site: liver, lesion: hepatocellular adenoma + hepatocellular carcinoma + neoplastic nodule, dosed 78 weeks, study length 106 weeks): 233 mg/kg/day

CC(=O)N(O)c1ccc(-c2ccccc2)cc1
carcinogen call (rat, strain Not specified, females, in feed, site: liver, lesion: one or several types, types not named, dosed 43 weeks, study length 65 weeks): negative (inactive)
